Test results: patent publication US11584775B2, “C4-modified oleanolic acid derivatives for inhibition of IL-17 and other uses” (REATA PHARMACEUTICALS, INC., priority 2015, dated 2023)

Key:
[1] = tested on: hIL17; assay: IL-17 release from differentiated primary human T-cells (IL-17A HTRF assay); format: cell-based; conditions: inhibition of IL-17A levels; primary human CD4+ T cells differentiated into Th17 cells, 46-hour incubation
Outline: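 Cryopreserved primary human CD4+ T cells were activated with anti-CD3/CD28 beads and driven to Th17 with TGF-β, IL-6, IL-23 and IL-1β in the presence of compound (2-500 nM or 4-1000 nM) for 46 h at 37° C. Supernatant IL-17A was quantified by HTRF against a standard curve and normalized to DMSO. IC50s came from variable-slope fits, with viability read by CyQuant.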

[2] = target: T1, human RORγ (Homo sapiens, UniProt P51449); assay: RORγ assay (GAL4-RORγ hybrid luciferase reporter, inverse-agonist activity); format: cell-based; conditions: GAL4-RORγ hybrid reporter cells, 23 hours
T1 sequence (P51449 269-508 limits assumed): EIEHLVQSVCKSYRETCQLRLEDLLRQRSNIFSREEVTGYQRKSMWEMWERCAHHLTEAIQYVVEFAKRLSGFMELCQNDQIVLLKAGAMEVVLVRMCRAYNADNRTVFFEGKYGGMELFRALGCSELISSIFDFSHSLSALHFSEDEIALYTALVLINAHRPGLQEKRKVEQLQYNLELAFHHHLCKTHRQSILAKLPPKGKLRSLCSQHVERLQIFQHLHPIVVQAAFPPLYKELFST
Outline: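 Human cell line expressing GAL4-DBD/RORγ hybrid with UAS-driven luciferase, treated in triplicate with compound (0.4–200 nM or 2–1000 nM) for 23 h at 37 °C. Luminescence normalized to DMSO; viability measured in parallel by multiplex assay. IC50 for RORγ and viability by variable-slope nonlinear regression.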

[3] = tested on: NRF2; assay: AREc32 luciferase reporter assay; format: cell-based, human; conditions: EC2×: concentration required to increase GST ARE Luciferase reporter activity by 2-fold; AREc32 cells, 19 hours
Outline: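 AREc32 cells (MCF-7 stably carrying eight rat GSTA2 ARE copies driving firefly luciferase) treated 19 h with compound (0.4–200 nM or 2–1000 nM), triplicate. Luminescence normalized to DMSO as fold-induction; variable-slope fit capped at 50-fold; EC2× = concentration giving 2-fold induction.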

[4] = tested on: IFNγ-induced Nitric Oxide production; assay: Nitric oxide production assay in RAW 264.7 mouse macrophages; format: cell-based; conditions: RAW264.7, suppression of IFNγ-induced NO production normalized to cell viability (WST-1), RAW 264.7, 24 hours IFNγ
Outline: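 Cells pre-treated 2 h with compound (0.4-200 nM or 2-1000 nM) in RPMI 1640 + 0.5% FBS, then stimulated with recombinant mouse IFNγ for 24 h at 37 °C. Nitrite measured by Griess reagent, viability by WST-1; IC50 from NO suppression normalized to viability and to DMSO/IFNγ controls.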

For CC1(C)CC[C@@]23CC[C@@]4(C)[C@]5(C)CC[C@@H]6[C@](C)(C=C(C#N)C(=O)[C@@]6(C)CO)C5=CC(=O)[C@]4(OC2=O)[C@@H]3C1 [Compound T31, (4R,4aR,6aR,6bS,8aS,12aR,12bS,14bS)-4-(hydroxymethyl)-4,6a,6b, 11,11,14b-hexamethyl-3,13,16-trioxo-4,4a,5,6,6a,6b,7,8,10,11,12,12a,13,14b-tetradecahydro-3H,9H-12b,8a-(epoxymethano)picene-2-carbonitrile], the IC50 [1] was 20 nM, the IC50 [2] was 177 nM and the “EC2x: concentration giving 2-fold induction of ARE luciferase reporter” value [3] was 21 nM. For the same molecule, the IC50 [4] was 10.5 nM.
In the case of CC(=O)OC[C@]1(C)C(=O)C(C#N)=C[C@]2(C)C3=CC(=O)[C@]45OC(=O)[C@@]6(CCC(C)(C)C[C@H]64)CC[C@@]5(C)[C@]3(C)CC[C@H]21 [Compound T32, ((4R,4aR,6aR,6bS,8aS,12aR,12bS,14bS)-2-cyano-4,6a,6b, 11,11,14b-hexamethyl-3,13,16-trioxo-4,4a,5,6,6a,6b,7,8,10,11,12,12a,13,14b-tetradecahydro-3H,9H-12b,8a-(epoxymethano)picen-4-yl)methyl acetate], the IC50 [1] is reported as 28 nM, the IC50 [2] is reported as 118 nM and the “EC2x: concentration giving 2-fold induction of ARE luciferase reporter” value [3] is reported as 243 nM. The IC50 [4] was 115 nM.
In the case of CC1(C)CC[C@@]23CC[C@@]4(C)[C@]5(C)CC[C@H]6[C@](C)(O)C(=O)C(C#N)=C[C@]6(C)C5=CC(=O)[C@]4(OC2=O)[C@@H]3C1 [Compound T33, (4S,4aR,6aR,6bS,8aS,12aR,12bS,14bS)-4-hydroxy-4,6a,6b, 11,11,14b-hexamethyl-3,13,16-trioxo-4,4a,5,6,6a,6b,7,8,10,11,12,12a,13,14b-tetradecahydro-3H,9H-12b,8a-(epoxymethano)picene-2-carbonitrile], the IC50 [1] is reported as 25 nM, the IC50 [2] is reported as 220 nM and the “EC2x: concentration giving 2-fold induction of ARE luciferase reporter” value [3] is reported as 120 nM. It also gave an IC50 [4] of 79.9 nM.
With COC(=O)[C@]1(C)C(=O)C(C#N)=C[C@]2(C)C3=CC(=O)[C@]45OC(=O)[C@@]6(CCC(C)(C)C[C@H]64)CC[C@@]5(C)[C@]3(C)CC[C@@H]12 [Compound T34, methyl (4S,4aR,6aR,6bS,8aS,12aR,12bS,14bS)-2-cyano-4,6a,6b, 11,11,14b-hexamethyl-3,13,16-trioxo-4,4a,5,6,6a,6b,7,8,10,11,12,12a,13,14b-tetradecahydro-3H,9H-12b,8a-(epoxymethano)picene-4-carboxylate] the IC50 [1] was 46 nM, the IC50 [2] was 268 nM and the “EC2x: concentration giving 2-fold induction of ARE luciferase reporter” value [3] was 377 nM. It also gave an IC50 [4] of 383 nM.
In the case of CNC(=O)[C@]1(C)C(=O)C(C#N)=C[C@]2(C)C3=CC(=O)[C@]45OC(=O)[C@@]6(CCC(C)(C)C[C@H]64)CC[C@@]5(C)[C@]3(C)CC[C@@H]12 [Compound T35, (4S,4aR,6aR,6bS,8aS,12aR,12bS,14bS)-2-cyano-N,4,6a,6b, 11,11,14b-heptamethyl-3,13,16-trioxo-4,4a,5,6,6a,6b,7,8,10,11,12,12a,13,14b-tetradecahydro-3H,9H-12b,8a-(epoxymethano)picene-4-carboxamide], the IC50 [1] is reported as 68 nM, the IC50 [2] is reported as 413 nM and the “EC2x: concentration giving 2-fold induction of ARE luciferase reporter” value [3] is reported as over 1000 nM. It also gave an IC50 [4] of over 1000 nM.
In the case of CC1(C)CC[C@@]23CC[C@@]4(C)[C@]5(C)CC[C@H]6[C@](C)(C(N)=O)C(=O)C(C#N)=C[C@]6(C)C5=CC(=O)[C@]4(OC2=O)[C@@H]3C1 [Compound T37, (4S,4aR,6aR,6bS,8aS,12aR,12bS,14bS)-2-cyano-4,6a,6b, 11,11,14b-hexamethyl-3,13,16-trioxo-4,4a,5,6,6a,6b,7,8,10,11,12,12a,13,14b-tetradecahydro-3H,9H-12b,8a-(epoxymethano)picene-4-carboxamide], the IC50 [1] is reported as 336 nM, the IC50 [2] is reported as 1350 nM and the “EC2x: concentration giving 2-fold induction of ARE luciferase reporter” value [3] is reported as over 1000 nM. The IC50 [4] was over 1000 nM.
In the case of COC(=O)[C@]12CCC(C)(C)C[C@H]1[C@@]1(O)C(=O)C=C3[C@@]4(C)C=C(C#N)C(=O)[C@@](C)(O)[C@@H]4CC[C@@]3(C)[C@]1(C)CC2 [Compound T38, methyl (4aS,6aS,6bR,8aR,9S,12aS,14aS,14bR)-11-cyano-9,14a-dihydroxy-2,2,6a,6b,9,12a-hexamethyl-10,14-dioxo-1,3,4,5,6,6a,6b,7,8,8a,9,10,12a,14,14a,14b-hexadecahydropicene-4a(2H)-carboxylate], the IC50 [1] is reported as 16 nM, the IC50 [2] is reported as 177 nM and the “EC2x: concentration giving 2-fold induction of ARE luciferase reporter” value [3] is reported as 80 nM. The IC50 [4] was 57.2 nM.
COC(=O)N[C@]12CCC(C)(C)C[C@H]1[C@H]1C(=O)C=C3[C@@]4(C)C=C(C#N)C(=O)[C@@](C)(O)[C@@H]4CC[C@@]3(C)[C@]1(C)CC2 [Compound T39, methyl ((4aS,6aR,6bS,8aR,9S,12aS,14aR,14bS)-11-cyano-9-hydroxy-2,2,6a,6b,9,12a-hexamethyl-10,14-dioxo-1,3,4,5,6,6a,6b,7,8,8a,9,10,12a,14,14a,14b-hexadecahydropicen-4a(2H)-yl)carbamate] was tested, and the IC50 [1] was 47 nM, the IC50 [2] was 364 nM and the “EC2x: concentration giving 2-fold induction of ARE luciferase reporter” value [3] was 218 nM. It also gave an IC50 [4] of 91.2 nM.
With COC(=O)N[C@]12CCC(C)(C)C[C@H]1[C@H]1C(=O)C=C3[C@@]4(C)C=C(C#N)C(=O)[C@@](C)(CO)[C@@H]4CC[C@@]3(C)[C@]1(C)CC2 [Compound T40, methyl ((4aS,6aR,6bS,8aR,9R,12aS,14aR,14bS)-11-cyano-9-(hydroxymethyl)-2,2,6a,6b,9,12a-hexamethyl-10,14-dioxo-1,3,4,5,6,6a,6b,7,8,8a,9,10,12a,14,14a,14b-hexadecahydropicen-4a(2H)-yl)carbamate] the IC50 [1] was 37 nM, the IC50 [2] was 698 nM and the “EC2x: concentration giving 2-fold induction of ARE luciferase reporter” value [3] was 130 nM. The IC50 [4] was 24.6 nM.
In the case of COC(=O)N[C@]12CCC(C)(C)C[C@H]1[C@H]1C(=O)C=C3[C@@]4(C)C=C(C#N)C(=O)[C@@](C)(COC(C)=O)[C@@H]4CC[C@@]3(C)[C@]1(C)CC2 [Compound T41, ((4R,4aR,6aS,6bR,8aS,12aS,12bR,14bS)-2-cyano-8a-((methoxycarbonyl)amino)-4,6a,6b, 11,11,11,14b-hexamethyl-3,13-dioxo-3,4,4a,5,6,6a,6b,7,8,8a,9,10,11,12,12a,12b,13,14b-octadecahydropicen-4-yl)methyl acetate], the IC50 [1] is reported as 35 nM, the IC50 [2] is reported as 135 nM and the “EC2x: concentration giving 2-fold induction of ARE luciferase reporter” value [3] is reported as 330 nM. It also gave an IC50 [4] of 151 nM.
For Cc1nnc([C@]23CCC(C)(C)C[C@H]2[C@H]2C(=O)C=C4[C@@]5(C)C=C(C#N)C(=O)[C@@](C)(CO)[C@@H]5CC[C@@]4(C)[C@]2(C)CC3)o1 [Compound T42, (4R,4aR,6aS,6bR,8aS,12aS,12bR,14bS)-4-(hydroxymethyl)-4,6a,6b, 11,11,14b-hexamethyl-8a-(5-methyl-1,3,4-oxadiazol-2-yl)-3,13-dioxo-3,4,4a,5,6,6a,6b,7,8,8a,9,10,11,12,12a,12b,13,14b-octadecahydropicene-2-carbonitrile], the IC50 [1] was 101 nM, the IC50 [2] was 389 nM and the “EC2x: concentration giving 2-fold induction of ARE luciferase reporter” value [3] was 97 nM. It also gave an IC50 [4] of 10.4 nM.
In the case of CC(=O)OC[C@]1(C)C(=O)C(C#N)=C[C@]2(C)C3=CC(=O)[C@@H]4[C@@H]5CC(C)(C)CC[C@]5(c5nnc(C)o5)CC[C@@]4(C)[C@]3(C)CC[C@H]21 [Compound T43, ((4R,4aR,6aS,6bR,8aS,12aS,12bR,14bS)-2-cyano-4,6a,6b, 11,11,14b-hexamethyl-8a-(5-methyl-1,3,4-oxadiazol-2-yl)-3,13-dioxo-3,4,4a,5,6,6a,6b,7,8,8a,9,10,11,12,12a,12b,13,14b-octadecahydropicen-4-yl)methyl acetate], the IC50 [1] is reported as 46 nM, the IC50 [2] is reported as 146 nM and the “EC2x: concentration giving 2-fold induction of ARE luciferase reporter” value [3] is reported as 369 nM. The IC50 [4] was 110 nM.
In the case of Cc1nnc([C@]23CCC(C)(C)C[C@H]2[C@H]2C(=O)C=C4[C@@]5(C)C=C(C#N)C(=O)[C@@](C)(O)[C@@H]5CC[C@@]4(C)[C@]2(C)CC3)o1 [Compound T44, (4S,4aR,6aS,6bR,8aS,12aS,12bR,14bS)-4-hydroxy-4,6a,6b, 11,11,14b-hexamethyl-8a-(5-methyl-1,3,4-oxadiazol-2-yl)-3,13-dioxo-3,4,4a,5,6,6a,6b,7,8,8a,9,10,11,12,12a,12b,13,14b-octadecahydropicene-2-carbonitrile], the IC50 [1] is reported as 50 nM, the IC50 [2] is reported as 236 nM and the “EC2x: concentration giving 2-fold induction of ARE luciferase reporter” value [3] is reported as 156 nM. The IC50 [4] was 72.8 nM.
